Reference: patent publication US20190038597A1, “PREVENTION OF VASCULAR AND CARDIAC FIBROSIS VIA IRE1ALPHA INHIBITION” (McMaster University, priority 2017, published 2019)

Key:
IRE1α endonuclease = target: T1, IRE1α endonuclease (Rattus norvegicus, UniProt A0A4Y1YQ52); test: XBP1 splicing assay in VSMCs; type: cell-based
T1 construct: endogenous in cells; host or cells: primary aortic vascular smooth muscle cells from 5-week old WKY rats
Method: VSMCs were treated with tunicamycin (1 μg/ml) and either 4μ8c (30 μM) or STF-083010 (60 μM) for 6 h or 24 h. (A) Agarose gel for assessment of XBP1 splicing after 6 h of treatment with tunicamycin and densitometric quantification. (B) Western blot for assessment of ER chaperone expression after 24 h tunicamycin treatment with or without inhibition of IRE1α by 4μ8c. Data is presented as mean±SEM. *, p<0.05 vs. Vehicle; #, p<0.05 vs. Tm.
VSMCs were cultured in DMEM/F12 containing 1% FBS. Confluent cells were treated with L-ascorbic acid-2-phosphate (100 μg/ml) and either TGF-β1 (5 ng/ml) or Ang II (1 μM). (A) Agarose gel for assessment of TGF-β1-induced XBP1 splicing in VSMCs after 24 h. (B) Picro-Sirius Red assay for measurement of collagen deposition induced by combined TGF-β1 and AA2P treatment after 72 h, and inhibition by 4μ8c and STF-083010. (C) Western blot for assessment of collagen chaperone expression after treatment of TGF-β1 and 4μ8c for 48 h. *, p<0.05. (D) Measurement of Ang II-induced collagen production and inhibition by 4μ8c and STF-083010 after 72 h.
VSMCs were isolated from the aortas of 5-week old WKY rats using the explant method^29. The thoracic aorta was removed from the animal and placed in ice-cold 5× Antibiotics-Antimycotics solution (ThermoFisher). The adventitia was gently removed and the aorta was cut longitudinally. The endothelial layer was removed by gentle scraping with forceps. […]
(§1) Total RNA was extracted from cultured cells and rat tissues using the TRIzol reagent (ThermoFisher) according to manufacturer's instructions. RNA concentration and purity were measured using a Nanodrop ND-1000 spectrophotometer (NanoDrop Technologies, Inc.). […]
Aortic VSMCs were isolated from normotensive WKY rats and used for in vitro experiments. […] To test the ability of these compounds to block the IRE1α endonuclease, XBP1 splicing was measured in VSMCs treated with the ER stress inducer tunicamycin for 6 h with or without pre-treatment by 4μ8c or STF-083010. […]

spliced XBP1, GRP78, PDI = test: Aortic collagen chaperone and ER stress marker expression (qRT-PCR, Western blot) in L-NAME-treated SHRs; type: in vivo, rat
Method: 12-14 week old male SHRs were randomized to receive vehicle, L-NAME (50 mg/L) or L-NAME and 4μ8c (2.5 mg/kg/day i.p.) for 18 days. Total RNA was extracted from flash frozen aortic tissues. (A) qRT-PCR was used to assess relative mRNA expression of spliced XBP1 and GRP78. 18S was used as a housekeeping gene. (B) Protein levels of PDI and GRP78 were assessed by western blotting and normalized to β-actin. Data is presented as mean±SEM. *, p<0.05 vs. NT. #, p<0.05 vs L-NAME.
12-14 week old male SHRs were used to determine the effect of pharmacological IRE1α inhibition on L-NAME-induced vascular stiffening. They were maintained on a 12-hour light-dark cycle with rat chow and water ad libitium. Animals were implanted with radio-telemetry devices (Data Science International, St. Paul, Minn., USA) one week before the start of the study. Animals were randomized into one of three groups (n=6 per group): 1) No treatment, 2) L-NAME (50 mg/L in drinking water, Sigma-Aldrich), or 3) L-NAME+4μ8c (2.5 mg/kg/day i.p., Millipore). 4μ8c was administered in a vehicle of 10% DMSO, 10% Tween-80 and 80% normal saline. Animals in Group 2 received daily injections of the vehicle. All animals were fed a normal chow diet. At 18 days, animals were sacrificed, organs were harvested and the aorta was collected for mechanical and structural analysis. All animal work was performed according to the guidelines approved by the McMaster University Animal Research Ethics Board.
as §1
For qRT-PCR, cDNA was amplified using the Fast SYBR Green Master Mix (ThermoFisher) and analyzed with 7500 Software. […]
Cells were lysed in 1× Laemmli buffer and protein content was quantified using the BioRad DC Protein Assay (BioRad, Mississauga, Canada). […]

T1 sequence (A0A4Y1YQ52 21-977): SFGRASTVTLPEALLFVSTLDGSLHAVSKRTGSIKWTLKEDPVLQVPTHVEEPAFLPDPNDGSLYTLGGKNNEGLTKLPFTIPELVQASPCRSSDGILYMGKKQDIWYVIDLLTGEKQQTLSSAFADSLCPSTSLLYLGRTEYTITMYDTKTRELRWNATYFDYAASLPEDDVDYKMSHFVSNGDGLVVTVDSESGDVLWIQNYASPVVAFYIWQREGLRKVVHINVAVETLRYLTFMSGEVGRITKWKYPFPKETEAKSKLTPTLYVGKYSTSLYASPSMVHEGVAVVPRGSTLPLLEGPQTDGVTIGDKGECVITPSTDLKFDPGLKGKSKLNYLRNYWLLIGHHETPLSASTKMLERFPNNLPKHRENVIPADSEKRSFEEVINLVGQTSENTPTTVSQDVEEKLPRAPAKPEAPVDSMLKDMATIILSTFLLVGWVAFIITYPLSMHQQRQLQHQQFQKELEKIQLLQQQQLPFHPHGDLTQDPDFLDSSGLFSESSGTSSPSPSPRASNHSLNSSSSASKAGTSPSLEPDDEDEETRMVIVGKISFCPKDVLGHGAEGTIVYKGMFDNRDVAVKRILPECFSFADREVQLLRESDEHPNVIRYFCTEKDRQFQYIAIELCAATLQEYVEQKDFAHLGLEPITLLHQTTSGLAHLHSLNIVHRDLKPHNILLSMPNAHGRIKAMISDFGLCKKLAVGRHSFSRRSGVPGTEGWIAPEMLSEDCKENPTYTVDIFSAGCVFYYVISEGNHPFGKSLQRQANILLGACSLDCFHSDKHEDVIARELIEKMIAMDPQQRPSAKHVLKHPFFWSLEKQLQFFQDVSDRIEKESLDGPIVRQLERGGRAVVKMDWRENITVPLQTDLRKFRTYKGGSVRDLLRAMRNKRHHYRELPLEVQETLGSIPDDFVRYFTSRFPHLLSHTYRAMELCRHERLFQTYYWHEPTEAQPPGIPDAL

`Cc1cc(=O)oc2c(C=O)c(O)ccc12` [4μ8c, 7-Hydroxy-4-methyl-2-oxo-2H-chromene-8-carbaldehyde] was tested, and the “TGF-β1 induced XBP1 splicing” value (IRE1α endonuclease; TGF-β1 (5 ng/ml) 24 h, co-treatment, FIG. 2A) was “blocked”, the “spliced-to-unspliced XBP1 ratio” value (IRE1α endonuclease; tunicamycin (1 μg/ml) 6 h, 4μ8c 30 μM or STF-083010 60 μM, FIG. 1A) was “reduced” and the “GRP78 protein in the aorta” value (spliced XBP1, GRP78, PDI; L-NAME+4μ8c group compared to the other two groups, Western blot) was “significantly decreased”. For the same molecule, the “PDI protein expression in the aorta” value (spliced XBP1, GRP78, PDI; L-NAME+4μ8c group vs L-NAME group, Western blot) was “significantly decreased” and the “Spliced XBP1 and GRP78 mRNA expression in the aorta” value (spliced XBP1, GRP78, PDI; L-NAME+4μ8c group vs L-NAME group, qRT-PCR, FIG. 6A) was “reduced”.
